# Laboratory results from patent US20140088052A1, “CHALCONE DERIVATIVES AS NRF2 ACTIVATORS” (THE JOHNS HOPKINS UNIVERSITY, priority 2011, published 2014).
# Legend:
# [1] = system: Nrf2; assay: Nrf2-regulated gene expression with or without N-acetyl-cysteine in Beas-2B cells; format: cell-based, human; settings: 10 μM with NAC 10 mM, 24 h
# Description: Cells were harvested 24 h after the treatment and the Nrf2-driven expression of NQO1, HO-1, and GCLM was quantified. β-actin was used for normalization. Data are representative of three independent experiments. Values shown are mean±SD of triplicate wells (P≦0.05);
# The activation of Nrf2 by various electrophiles and compounds that are Michael acceptors is attributed to changes in ROS production and or redox environment and or direct cysteine modification in Keap1. Nguyen, T., et al., The Nrf2-antioxidant response element signaling pathway and its activation by oxidative stress. J. Biol. Chem. 2009, 284, 13291-13295; McMahon, M., et al., Keap1 perceives stress via three sensors for the endogenous signaling molecules nitric oxide, zinc, and alkenals. Proc. Natl. Acad. Sci. U.S.A. 2010, 107, 18838-18843. Whether 2b activates Nrf2 by generating ROS or redox changes also was examined.
# [2] = system: Nrf2; assay: Concentration and time-course studies of Nrf2-driven antioxidant genes in Beas-2B cells; format: cell-based, human
# Description: The expression of Nrf2-regulated genes GCLM, HO1, and NQO1 was analyzed in the tissues by qRT-PCT as a surrogate marker of Nrf2 activity. β-actin was used for normalization. Data are representative of three independent experiments. […] The expression of Nrf2-regulated genes GCLM, HO1, and NQO1 was analyzed in the tissues by aRT-PCR. β-actin was used for normalization. Data are representative of three independent experiments. Values shown are mean±SD of triplicate wells (P≦0.05); […] […] Total RNA was extracted from cells/tissue using Qiagen RNeasy kit (Qiagen Corporation, Valencia, Calif.) and reverse transcription was performed by using random hexamers and MultiScribe reverse transcriptase according to the manufacturer's recommendations (Applied Biosystems, Foster City, Calif., USA). Quantitative real-time RT-PCR analyses of Nrf2, NQO1, HO1, and GCLM were performed by using Assay-on-Demand primers and probe sets from Applied Biosystems. Assays were performed using the ABI 7000 Taqman system (Applied Biosystems, Foster City, Calif.). β-actin was used for normalization.
# [3] = system: LPS-induced TNF-α secretion; assay: LPS-induced TNF-α secretion by mouse peritoneal macrophages; format: cell-based, mice; settings: 5 μM or 10 μM for 16-20 h, LPS 100 ng/mL 4 h, compared to vehicle
# Description: After 4 h, TNF-α secretion in cell-free media by macrophages was analyzed by ELISA.
# [4] = system: Nrf2; assay: Pharmacodynamic markers of Nrf2 activity (NQO1, HO-1, GCLM) in irradiated mice; format: in vivo; settings: irradiated (6.9Gy) mice, day 12, compared to vehicle
# Description: NQO1, HO-1 and GCLM levels were analyzed in bone marrow (FIG. 12A), lung (FIG. 12B) and small intestine (FIG. 12C) harvested at day 12 from irradiated (6.9Gy) mice treated with vehicle or drug.
# [5] = system: mice subjected to total body irradiation (TBI); assay: Hematopoietic recovery after total body irradiation; format: in vivo
# Description: At indicated time periods, a cohort of mice was sacrificed. Peripheral blood was collected by heart puncture at the indicated days and differential blood cell count was analyzed using Hemavet 950FS(P<0.05, n=3 per group). Femur bones were fixed, decalcified sectioned along the sagittal plan and stained with hematoxylin and eosin for analyzing marrow cellularity.
# [6] = system: OVA-induced asthma; assay: OVA-induced asthma mouse model; format: in vivo; design: dose or concentration left out as unconfirmed; settings: mice, every other day during sensitization and challenge, prophylactic mode
# Description: Mice were sensitized by intraperitoneal injection (day 0, day 14), and challenged intranasally, with OVA (day 21 to day 24). […] 24 h after the last dose of OVA challenge, airway inflammation (FIG. 16A) and airway hyperresponsiveness (AHR) (FIG. 16B) were assessed.
# [7] = system: Beas-2B cells; assay: Cell viability / cytotoxicity (MTT assay) in Beas-2B cells; format: cell-based, human; settings: 24 h, DMSO = 100
# Description: Concurrent with the gene expression analysis, the cytotoxicity of the chalcone derivatives was determined using the MTT assay.
# Mad. Chem. 2007, 15, 2952-2962. […] Four hours before the end of incubation, the medium was removed and 100 μL of MTT (5 mg/mL in serum free medium) was added to each well. The MTT was removed after 4 h, cells were washed with PBS, and 100 μL DMSO was added to each well to dissolve the water-insoluble MTT-formazan crystals. The absorbance was recorded at 570 nm in a plate reader (Molecular Devices, Sunnyvale, Calif.).
# [8] = system: mice subjected to total body irradiation (TBI); assay: Survival of mice after total body irradiation; format: in vivo, mice (C57BL/6); settings: 5 more doses every 48 h; for survival: 30 days
# Description: To determine whether 2-trifluoromethyl-2′-methoxychalone, a potent Nrf2 activator, improves survival after lethal irradiation, irradiated mice were treated with 2-trifluoromethyl-2′-methoxychalone (200 μmol/kg body weight) or vehicle (100% PEG) by gavage. […] (LD70/30; 70% death in 30 days).
# To investigate the therapeutic efficacy of compound 2b to mitigate mortality and the hematopoietic syndrome, mice were subjected to total body irradiation (TBI). C57BL/6 (8 wks, males,) were fed chow pellets ad libitum and supplied non-acidic water. Mice were subjected to TBI (0.65 Gy/min) in an AECL Gamma cell 40 irradiator (Atomic Energy, Canada).
# Mortality was monitored every day for 30 days.
# Mortality was monitored every day for 30 days. […] The percent mortality of mice treated with the vehicle at 1 h or 6 h after radiation was 100% (data not shown).
# [9] = system: chemotherapy-induced neutropenia; assay: Cyclophosphamide-induced reversible neutropenia in mice; format: in vivo; settings: cyclophosphamide i.p. day 0 and day 5, treatment every 48 h, compared to vehicle
# Description: At indicated time periods, a cohort of mice was sacrificed. Peripheral blood was collected and differential blood cell count was analyzed using a Hemavet 950S.
# [10] = Beas-2B cells, 10 μM, 6 h after treatment
structure (smiles),measurement,setting,value
"COc1ccccc1C(=O)/C=C/c1ccccc1C(F)(F)F [Compound 2b, (E)-1-(2-methoxyphenyl)-3-(2-(trifluoromethyl)phenyl)prop-2-en-1-one]","expression of GCLM, NQO1 and HO1 in the presence of NAC",[1],potentially increase the expression of Nr2-regulated antioxidant genes in the presence of NAC
same,expression of HO-1 compared to sulforaphane,"[2]; Beas-2B cells, 10 μM",6 fold
same,expression of NQO1 over time,"[2]; Beas-2B cells, 10 μM, 6, 12, 24 and 48 h",highest at 24 h and remained significantly elevated even at 48 h
same,highest induction of GCLM,[2]; [10],approximately 7 fold
same,highest induction of HO-1,[2]; [10],approximately 150 fold
same,expression of GCLM and HO-1 at 48 h,"[2]; Beas-2B cells, 10 μM, 48 h",comparable to vehicle by 48 h
same,increase in the expression of GCLM,"[2]; Beas-2B cells, 20 μM, 24 h",approximately 5 fold
same,increase in the expression of NQO1,"[2]; Beas-2B cells, 20 μM, 24 h",~10 fold
same,"Nrf2-regulated gene expression (GCLM, NQO1, HO1)","[2]; Beas-2B cells, 2.5, 5, 10, 20 μM, 24 h",significantly increased the Nrf2-regulated gene expression in a concentration-dependent manner
same,LPS-induced TNF-α secretion by macrophages (ELISA),[3],significant decrease in LPS-induced TNF-α secretion
same,"Nrf2 regulated antioxidants (NQO1, HO-1, GCLM) in BM-MNC, gut and lung",[4],significantly elevated
same,bone marrow cellularity (H&E staining),"[5]; 6.9 Gy TBI, day 7 and day 20, compared to vehicle",greater marrow cellularity
same,"WBC, RBC and platelets on day 22 post-irradiation","[5]; 6.9 Gy TBI, oral treatment from 24 h after","significant increase in WBC, red blood cells (RBC) and platelets"
same,"white blood cells, neutrophils and lymphocytes post-irradiation","[5]; 6.9 Gy TBI, oral treatment from 24 h after, compared to vehicle","early increase in white blood cells (WBC), neutrophils and lymphocytes"
same,"hematopoietic reconstitution (CBC analysis, WBC)","[5]; 7.3 Gy TBI, treatment 24 hours after, 30 days",significant recovery of WBC
same,allergen-induced asthma (airway inflammation and airway hyper-responsiveness),[6],protected the mice from allergen-induced asthma
same,% Cell Viability,[7],100.9%
same,median survival,"[8]; 7.3 Gy TBI, treatment started 24 hours after irradiation, 200 μmol/kg by gavage, vehicle approximately 15 days",26 days
same,survival,"[8]; TBI 6.9 Gy, oral 400 mg/Kg started 24 h after TBI",90%
same,survival,"[8]; TBI 7.1 Gy, oral 400 mg/Kg started 24 h after TBI",60%
same,survival,"[8]; TBI 7.3 Gy, oral treatment started 1 h after TBI",approximately 60%
same,survival,"[8]; TBI 7.3 Gy, oral treatment started 6 h after TBI",~50%
same,duration of neutropenia,[9],significantly reduced the duration of neutropenia
